{"source": "patent US9284345B2", "about": "(priority 2007, dated 2016)", "key": {"Intact Rat": {"tested_on": "Intact Rat", "experiment": "In vivo activity in intact rat (organ and muscle weight)"}, "[1]": {"tested_on": "Shionogi mouse mammary carcinoma cells", "experiment": "cells", "assay_type": "cell-based"}, "in vivo": {"experiment": "in vivo", "conditions": "male, Sprague-Dawley, rat, plasma, po, 0.5 mg/animal"}, "Human Androgen Receptor": {"target": "T1, Human Androgen Receptor (Homo sapiens, UniProt P10275)", "T1 construct": "expressed in transfected cells; host or cells: HEK-293 cells stably transfected with the pCMVneo-hAR plasmid (G-418 selection); cytosol used", "T1 sequence (P10275 1-920)": "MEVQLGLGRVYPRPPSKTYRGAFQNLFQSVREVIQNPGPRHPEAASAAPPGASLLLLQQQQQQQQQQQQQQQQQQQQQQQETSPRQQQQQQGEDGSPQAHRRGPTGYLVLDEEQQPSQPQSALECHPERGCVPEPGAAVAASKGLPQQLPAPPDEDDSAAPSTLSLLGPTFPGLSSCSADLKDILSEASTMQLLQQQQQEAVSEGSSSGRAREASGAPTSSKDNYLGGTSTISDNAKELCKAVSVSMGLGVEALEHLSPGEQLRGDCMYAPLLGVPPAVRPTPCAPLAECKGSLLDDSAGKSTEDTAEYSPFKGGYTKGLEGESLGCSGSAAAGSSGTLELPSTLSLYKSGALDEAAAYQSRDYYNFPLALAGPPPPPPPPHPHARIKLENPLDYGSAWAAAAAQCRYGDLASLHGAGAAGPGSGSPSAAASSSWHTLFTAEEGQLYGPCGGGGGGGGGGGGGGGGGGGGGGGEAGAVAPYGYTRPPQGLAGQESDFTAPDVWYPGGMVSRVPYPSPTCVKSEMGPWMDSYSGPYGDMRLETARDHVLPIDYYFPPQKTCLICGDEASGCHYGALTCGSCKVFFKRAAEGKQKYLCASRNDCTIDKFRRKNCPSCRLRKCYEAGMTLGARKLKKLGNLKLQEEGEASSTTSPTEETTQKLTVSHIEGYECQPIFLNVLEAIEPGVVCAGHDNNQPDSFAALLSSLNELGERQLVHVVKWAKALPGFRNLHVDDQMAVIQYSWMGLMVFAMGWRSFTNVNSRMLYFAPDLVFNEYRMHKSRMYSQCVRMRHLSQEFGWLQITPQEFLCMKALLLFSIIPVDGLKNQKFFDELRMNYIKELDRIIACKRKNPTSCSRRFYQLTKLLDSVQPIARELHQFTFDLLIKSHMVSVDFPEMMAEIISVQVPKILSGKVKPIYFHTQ", "assay_type": "binding"}, "Immature Rat CX + DHT": {"tested_on": "Immature Rat CX + DHT", "experiment": "animal or person", "assay_type": "in vivo", "conditions": "rat, in vivo"}, "androgen receptor": {"tested_on": "androgen receptor", "experiment": "Antiandrogen / SARM / androgen profile observed on structural change", "conditions": "structure-activity observation in estratriene derivatives", "description": "Preferred positions on the steroid to this change in activities are 3, 4, 11β, 16 and 17α. […] Moreover, when we changed the 4-fluoro by a 4-chloro on EM-6583, we obtained a pure androgen (EM-5697). Similarly, when we increased the size of the chain at 17α-position on (1,4-phenylene as a spacer group), EM-8419 became a SARM. Again, when we changed the 4-fluoro by a 4-chloro on EM-8419, we obtained a pure androgen (EM-5313).\nWe also believed that a larger size increase could reverse the observed tendency (androgen to SARM or antiandrogen). Thus, it is not obvious to make good predictions of the biological activity of this compound family but some trends are observable."}, "Rat Androgen Receptor": {"target": "T2, Rat Androgen Receptor (Rattus norvegicus, UniProt P15207)", "T2 construct": "ventral prostates collected from 24 h-gonadectomized rats were homogenized in buffer A; from tissue; host or cells: rat ventral prostate cytosol (24 h-gonadectomized rats)", "T2 sequence (P15207 1-902)": "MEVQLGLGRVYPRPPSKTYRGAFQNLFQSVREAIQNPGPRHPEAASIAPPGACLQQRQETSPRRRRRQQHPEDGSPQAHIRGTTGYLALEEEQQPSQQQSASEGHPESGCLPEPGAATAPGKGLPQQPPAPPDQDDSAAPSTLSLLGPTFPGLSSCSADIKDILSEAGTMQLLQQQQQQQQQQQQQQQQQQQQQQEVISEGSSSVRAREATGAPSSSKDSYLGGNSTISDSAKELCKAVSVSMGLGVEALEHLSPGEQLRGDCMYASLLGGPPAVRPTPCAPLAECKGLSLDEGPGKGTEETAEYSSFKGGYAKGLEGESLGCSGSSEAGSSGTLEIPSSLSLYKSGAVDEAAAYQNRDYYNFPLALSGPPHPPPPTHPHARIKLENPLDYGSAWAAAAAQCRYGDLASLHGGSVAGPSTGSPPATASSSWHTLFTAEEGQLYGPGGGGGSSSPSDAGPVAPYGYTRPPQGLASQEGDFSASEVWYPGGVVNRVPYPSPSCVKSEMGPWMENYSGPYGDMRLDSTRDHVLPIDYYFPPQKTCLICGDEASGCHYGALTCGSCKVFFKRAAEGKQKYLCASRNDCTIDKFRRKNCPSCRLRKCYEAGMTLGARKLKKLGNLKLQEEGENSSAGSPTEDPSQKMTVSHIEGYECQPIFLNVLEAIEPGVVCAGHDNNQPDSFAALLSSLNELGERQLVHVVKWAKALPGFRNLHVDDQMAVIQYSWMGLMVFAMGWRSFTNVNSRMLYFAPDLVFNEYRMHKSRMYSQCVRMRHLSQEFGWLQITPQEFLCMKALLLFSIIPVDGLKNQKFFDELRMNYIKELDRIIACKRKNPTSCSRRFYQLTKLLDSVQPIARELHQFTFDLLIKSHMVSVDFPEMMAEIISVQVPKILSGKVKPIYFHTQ", "experiment": "Androgen receptor binding assay (HAP, [3H]R1881), rat prostate cytosol", "description": "On the morning of the binding assay, ventral prostates collected from 24 h-gonadectomized rats were homogenized in buffer A (1 g of tissue in 5 mL) and the homogenate was centrifuged as described above.\nAndrogen binding is measured using the hydroxylapatite (HAP) assay. In brief, the radioactive steroid [^3H]R1881 solubilized in ethanol is diluted with buffer B (10 mM Tris-HCl, 1.5 mM EDTA disodium salt, 10 mM α-monothioglycerol, pH 7.4). Aliquots of the cell or prostate cytosol preparation (0.1 ml) are then incubated with 5 nM [^3H]R1881 (0.1 ml, ˜100 000 cpm) in the presence or absence of the indicated concentrations of unlabeled compounds (0.1 ml, prepared in buffer B containing 30% ethanol) for 16-18 h at 0-4° C. Triamcinolone acetonide (TAC; 100 nM) is added to mask progesterone receptors. Unbound steroids are separated by incubation for 40 min at 0-4° C. with 0.3 ml HAP prepared in buffer P (50 mM Tris-HCl, 10 mM KH2PO4, pH 7.4). After incubation with HAP and 10 min of centrifugation at 1000×g, the pellet is washed 3 times with 1 ml of buffer P. Thereafter, the radioactivity is extracted from the pellet by incubation at room temperature for 60 min with 1 ml of ethanol. After centrifugation, the supernatant is decanted into a scintillation vial and the pellet is extracted again with ethanol. After the addition of scintillation liquid, the radioactivity is measured in a liquid scintillation counter."}}, "note": "“And” between values parts separate entries of the source, which are not always exact repeats. Equal entries are not always repeated."}
{"smiles": "C[C@@]1(Cc2ccc(C#N)cc2)CC2C3CCc4c(C#N)cccc4C3CC[C@]2(C)[C@H]1O", "note": "(stereo partly drawn) [EM-3585]", "values": [{"measurement": "In Vivo Intact Rat % change vs Intact CONT (Intact CONT = +100%; CX CONT = 0%) Bulbo", "setting": "Intact Rat; 0.1 mg/rat/os/ID, bulbocavernosus muscles weight", "result": "+263 ± 64%"}, {"measurement": "In Vivo Intact Rat % change vs Intact CONT (Intact CONT = +100%; CX CONT = 0%) VP", "setting": "Intact Rat; 0.1 mg/rat/os/ID, prostate weight", "result": "+82 ± 17%"}, {"measurement": "In Vivo Intact Rat % change vs Intact CONT (Intact CONT = +100%; CX CONT = 0%) SZ", "setting": "Intact Rat; rat, in vivo", "result": "+114 ± 23%"}, {"measurement": "% of stim of basal at 10^−7M (% over basal)", "setting": "[1]", "result": "+279%"}, {"measurement": "% of stim of basal at 10^−7 M (DHT = 100%)", "setting": "[1]", "result": "+63%"}, {"measurement": "inhibition at 0.0003 µM", "setting": "[1]; Mus musculus, read-out: % of inh of DHT at 10^−7 M (Basal = 100%)", "result": 41, "unit": "%"}, {"measurement": "AUC(0-t)", "setting": "in vivo", "result": "2370 ± 253", "unit": "ng·h/mL"}, {"measurement": "Human Androgen Receptor Binding RBA (%) R1881 = 100%", "setting": "Human Androgen Receptor", "result": 55, "unit": "%"}, {"measurement": "In Vivo Anti-A Rat CX + DHT % change vs DHT (CX CONT = −100%) Bulbo", "setting": "Immature Rat CX + DHT; po", "result": "[+67 ± 21] %"}, {"measurement": "In Vivo Anti-A Rat CX + DHT % change vs DHT (CX CONT = −100%) SV", "setting": "Immature Rat CX + DHT; po", "result": "[−2 ± 15] %"}, {"measurement": "In Vivo Anti-A Rat CX + DHT % change vs DHT (CX CONT = −100%) VP", "setting": "Immature Rat CX + DHT; po", "result": "[−26 ± 7] %"}, {"measurement": "In Vivo Agonist Rat CX % change vs CX (DHT CONT = +100%) Bulbo", "setting": "Immature Rat CX", "result": "+74 ± 18%"}, {"measurement": "In Vivo Agonist Rat CX % change vs CX (DHT CONT = +100%) SV", "setting": "Immature Rat CX", "result": "+13 ± 4%"}, {"measurement": "In Vivo Agonist Rat CX % change vs CX (DHT CONT = +100%) VP", "setting": "Immature Rat CX", "result": "+20 ± 4%"}]}
{"smiles": "C[C@]12CCC3c4ccc(C#N)c(Cl)c4CCC3C1CC[C@@]2(O)Cc1ccc(-c2ccc[n+]([O-])c2)cc1", "note": "(stereo partly drawn) [EM-5313]", "values": [{"measurement": "activity profile (antiandrogen, SARM or androgen)", "setting": "androgen receptor", "result": "pure androgen"}]}
{"smiles": "CC1CC2(C)C(CCC2(O)Cc2cc[n+]([O-])cc2)C2CCc3c(ccc(C#N)c3Cl)C12", "note": "(stereo not drawn) [EM-5697]", "values": [{"measurement": "activity profile (antiandrogen, SARM or androgen)", "setting": "androgen receptor", "result": "pure androgen"}]}
{"smiles": "Cc1c(C#N)ccc2c1CCC1C2CCC2(C)C1CCC2(O)Cc1cc[n+]([O-])cc1", "note": "(stereo not drawn) [EM-5985]", "values": [{"measurement": "Shionogi cells Antiandrogenic activity Ki OH-Flu/Ki compound", "setting": "[1]", "result": "12 and 12 ± 4"}, {"measurement": "activity on the basal level of Shionogi cell proliferation", "setting": "[1]", "result": "none of these compounds has any activity"}, {"measurement": "Ki", "setting": "[1]; read-out: Shionogi cells Antiandrogenic activity Ki", "result": "0.9 ± 0.2", "unit": "nM"}, {"measurement": "Human Androgen Receptor Binding RBA (%) R1881 = 100%", "setting": "Human Androgen Receptor", "result": "2.0 ± 0.3", "unit": "%"}, {"measurement": "affinity for the human compared to the rat androgen receptor", "setting": "Human Androgen Receptor", "result": "approximately 3 fold"}, {"measurement": "inhibition of DHT-stimulated seminal vesicle weight", "setting": "Immature Rat CX + DHT", "result": 84, "unit": "%"}, {"measurement": "inhibition of DHT-stimulated ventral prostate weight", "setting": "Immature Rat CX + DHT", "result": 69, "unit": "%"}, {"measurement": "potency on rat androgen-sensitive parameters relative to currently available antiandrogens", "setting": "Immature Rat CX + DHT", "result": "approximately 5 times"}, {"measurement": "Rat Androgen Receptor Binding RBA (%) R1881 = 100%", "setting": "Rat Androgen Receptor", "result": 0.6, "unit": "%"}, {"measurement": "In Vivo Agonist % Change vs CX (DHT = +100%) SV", "setting": "Immature Rat CX; po", "result": "[0] %"}, {"measurement": "In Vivo Agonist % Change vs CX (DHT = +100%) VP", "setting": "Immature Rat CX; po", "result": "[0] %"}]}
